# Measured values as given in patent US20100035984A1, “Use of an antibacterial compound which is derived from alliaceae, as a natural additive in animal feed” (DMC Research Center, S.L., priority 2006, published 2010).
# Where “and” joins values, the source holds several entries; their conditions need not be identical. Equal values may be shown once. Marks after values point to notes of the source that are not given here.
# Experiments:
# Assay type in all cases: cell-based
# [1] = test system: ruminal fermentation (methane-producing microorganisms); assay: Production of gas by in vitro fermentation of the diets (Example 4)
# Experimental: The effect of different doses of the compounds object of study on the production of gas promoted by in vitro fermentation for 24 and 48 hours of the diets the composition of which is included in Table 1 is studied.
# lactobacilli = assay: In vitro fermentation of pig feces, lactobacilli count (Example 2); details: 200 mg/L, 24 hours
# Experimental: (§1) The mean values affected by different indexes indicate significant differences (p<0.05). The vertical axis of the graph determines the log 10(cfu/g feces) and the horizontal axis determines the compound. The described assays are carried out using complete bacterial inocula obtained from feces of piglets in post-weaning stage. Two of the compounds (referenced as PTS and as PTSO) are assayed in a lower dose range (50-400 mg/L).
# [2] = test system: microbiota of the ruminal inoculum (ruminal fluid of goats); assay: In vitro ruminal degradation of experimental diets (Example 3); details: for DDM (degradability of dry matter), mean / DOM (degradability of organic matter), mean: 48 hours
# Experimental: The Effect of Different Doses of the Compounds Object of Study on the Ruminal Degradation of Two Different Diets the Composition of which is in Table 1 is Studied The diets consist of alfalfa hay (standard maintenance diet for ruminant animals) or of a mixture of 50% alfalfa hay and a commercial concentrate (standard lactation diet for ruminant animals). In vitro incubation is performed using ruminal fluid of goats as inoculum.
# bifidobacteria = assay: In vitro fermentation of pig feces, bifidobacteria count (Example 2); details: 200 mg/L, 24 hours
# Experimental: as §1
# [3] = test system: total anaerobes, total aerobes, enterobacteria, coliform bacteria, bacteroides, clostridia, lactobacilli and bifidobacteria; assay: In vitro fermentation of pig feces inoculum, counts of all bacterial groups (Example 1); details: 50 to 2000 mg/L in culture medium, 24 hours in vitro fermentation, inocula from piglet feces
# Experimental: FIG. 1 is a graph relating to Example 1 (study of the porcine digestive microbial composition) showing the effect of different concentrations of the compound PTSO after 24 hours of in vitro fermentation on the total anaerobic bacteria, total aerobic bacteria, enterobacteria, coliform bacteria, bacteroides, clostridia, lactobacilli and bifidobacteria count present in pig feces. The vertical axis of the graph determines the log 10(cfu/g feces) and the horizontal axis determines the bacterial group.
# The described assays are carried out using complete bacterial inocula obtained from feces of piglets in post-weaning stage.
# [4] = Alfalfa hay + concentrate, 10 ppm
# [5] = Alfalfa hay + concentrate, 25 ppm
# [6] = Alfalfa hay + concentrate, 50 ppm
# [7] = Alfalfa hay + concentrate, 300 ppm
# [8] = Alfalfa hay + concentrate, 750 ppm
# [9] = Alfalfa hay + concentrate, 1000 ppm
# [10] = Alfalfa hay + concentrate, 2000 ppm
# [11] = diet D1, 48 hours, 10 ppm, replicates
# [12] = diet D1, 48 hours, 25 ppm, replicates
# [13] = diet D1, 48 hours, concentration 50, replicates
# [14] = diet D1, 48 hours, concentration 300, replicates
# [15] = diet D1, 48 hours, concentration 750, replicates
# [16] = diet D1, 48 hours, concentration 1000, replicates
# [17] = diet D2, 48 hours, 10 ppm, replicates
# [18] = diet D2, 48 hours, 25 ppm, replicates
# [19] = diet D2, 48 hours, concentration 50, replicates
# [20] = diet D2, 48 hours, concentration 300, replicates
# [21] = diet D2, 48 hours, concentration 750, replicates
# [22] = diet D2, 48 hours, concentration 1000, replicates
# [23] = diet D2, 48 hours, concentration 2000, replicates
substance,measurement,setting,value
propyl propylthiosulfonate [PTSO],"inhibitory effect on production of fermentation gas, dependence on dose",[1],dose-dependent
same,"inhibitory effect on production of fermentation gas, dependence on time",[1]; 24 and 48 hours,time-dependent
same,doses at which the inhibitory effect on production of fermentation gas is observed,[1]; diet D2,10 ppm
same,lactobacilli logarithmic reduction in the population,lactobacilli,approximately 50%
same,"DDM (degradability of dry matter), mean",[2]; [4],63.4^a
same,"DOM (degradability of organic matter), mean",[2]; [4],63.8^a
same,"DDM (degradability of dry matter), mean",[2]; [5],62.5^a
same,"DOM (degradability of organic matter), mean",[2]; [5],60.6^a
same,"DDM (degradability of dry matter), mean",[2]; [6],61.1^a
same,"DOM (degradability of organic matter), mean",[2]; [6],63.5^a
same,"DDM (degradability of dry matter), mean",[2]; [7],45.2^b
same,"DOM (degradability of organic matter), mean",[2]; [7],44.7^b
same,"DDM (degradability of dry matter), mean",[2]; [8],38.1^c
same,"DOM (degradability of organic matter), mean",[2]; [8],37.4^c
same,"DDM (degradability of dry matter), mean",[2]; [9],37.2^c
same,"DOM (degradability of organic matter), mean",[2]; [9],36.0^c
same,"DDM (degradability of dry matter), mean",[2]; [10],36.7^c
same,"DOM (degradability of organic matter), mean",[2]; [10],32.3^c
same,"DDM (degradability of dry matter), mean","[2]; Alfalfa hay, 10 ppm",55.5^a
same,"DOM (degradability of organic matter), mean","[2]; Alfalfa hay, 10 ppm",48.4^ab
same,"DDM (degradability of dry matter), mean","[2]; Alfalfa hay, 25 ppm",54.5^a
same,"DOM (degradability of organic matter), mean","[2]; Alfalfa hay, 25 ppm",53.2^ab
same,"DDM (degradability of dry matter), mean","[2]; Alfalfa hay, 50 ppm",45.6^b
same,"DOM (degradability of organic matter), mean","[2]; Alfalfa hay, 50 ppm",45.9^b
same,"DDM (degradability of dry matter), mean","[2]; Alfalfa hay, 300 ppm",36.2^c
same,"DOM (degradability of organic matter), mean","[2]; Alfalfa hay, 300 ppm",35.5^c
same,"DDM (degradability of dry matter), mean","[2]; Alfalfa hay, 750 ppm",30.4^d
same,"DOM (degradability of organic matter), mean","[2]; Alfalfa hay, 750 ppm",29.9^c
same,"DDM (degradability of dry matter), mean","[2]; Alfalfa hay, 1000 ppm",34.5^c
same,"DOM (degradability of organic matter), mean","[2]; Alfalfa hay, 1000 ppm",33.7^c
same,"DDM (degradability of dry matter), mean","[2]; Alfalfa hay, 2000 ppm",30.3^d
same,"DOM (degradability of organic matter), mean","[2]; Alfalfa hay, 2000 ppm",29.0^c
same,Mean DDM,"[2]; Table 3: diet D1, 48 hours, 2000 ppm",31.6%
same,DDM (degradation of dry matter),"[2]; Table 3: diet D1, 48 hours, 2000 ppm, replicates",30.9% and 30.2% and 32.0% and 31.4% and 32.2% and 32.7%
same,DDM,"[2]; Table 4: diet D1, 48 hours, concentration 2000, replicates",31.9% and 28.7%
same,effect on degradation of dry matter and organic matter,"[2]; diet D1, 2000 ppm, 48 hours in vitro incubation",higher reduction
same,DDM,[2]; [11],54.9% and 56.1%
same,DOM,[2]; [11],45.0% and 51.8%
same,DDM,[2]; [12],54.1% and 55.0%
same,DOM,[2]; [12],52.9% and 53.6%
same,DDM,[2]; [13],45.5% and 45.7%
same,DOM,[2]; [13],46.0% and 45.7%
same,DDM,[2]; [14],36.6% and 35.8%
same,DOM,[2]; [14],36.2% and 34.9%
same,DDM,[2]; [15],31.0% and 29.9%
same,DOM,[2]; [15],30.2% and 29.6%
same,DDM,[2]; [16],33.4% and 35.6%
same,DOM,[2]; [16],32.6% and 34.7%
same,DOM,"[2]; diet D1, 48 hours, concentration 2000, replicates",30.6% and 27.5%
same,DDM,[2]; [17],63.1% and 63.7%
same,DOM,[2]; [17],63.2% and 64.3%
same,DDM,[2]; [18],62.4% and 62.7%
same,DOM,[2]; [18],58.4% and 62.8%
same,DDM,[2]; [19],61.1% and 63.9%
same,DOM,[2]; [19],62.2% and 64.8%
same,DDM,[2]; [20],44.4% and 46.0%
same,DOM,[2]; [20],43.7% and 45.6%
same,DDM,[2]; [21],39.9% and 36.3%
same,DOM,[2]; [21],39.0% and 35.8%
same,DDM,[2]; [22],35.9% and 38.4%
same,DOM,[2]; [22],34.8% and 37.3%
same,DDM,[2]; [23],37.1% and 36.3%
same,DOM,[2]; [23],32.7% and 32.0%
same,bifidobacteria logarithmic reduction in the population,bifidobacteria,approximately 50%
same,growth of the bacterial groups studied,[3],inhibited the growth of all the bacterial groups studied
